Key:
GluN1/GluN2D receptors = target: T1, GluN1/GluN2D receptors (Rattus norvegicus, UniProt P35439+Q62645); assay: Patch-clamp inhibition of GluN1/GluN2D receptors in transfected HEK293 cells; format: cell-based; settings: 1 mM glutamate and 10 μM glycine
T1 construct: expressed in transfected cells; host or cells: HEK293
Method: (§1) FIGURE 7 Concentration–response properties of compound 6 on GluN1/GluN2A-D receptors. (A) Examples of traces obtained from HEK293 cells transfected with cDNAs encoding GluN1/GluN2A, GluN1/GluN2B, GluN1/GluN2C, and GluN1/GluN2D receptors. Agonists (1 mM glutamate and 10 μM glycine) were applied alone and simultaneously with compound 6 (10 μM) to evaluate the inhibitory effect of compound 6 on NMDAR mediated currents (duration of glutamate and steroid application is indicated by filled and open bars, respectively). (B) Concentration–response curves for the compound 6 effect at GluN1/GluN2A-D receptors. Data points are averaged values of normalized responses from at least four HEK293 cells. Error bars represent SD.
(§2) Electrophysiological experiments were performed on HEK293 cells transfected with plasmids encoding rat GluN1-1a/GluN2A-D and GFP genes as described previously, ([Petrovic et al., 2005]; [Cais et al., 2008]; [Korinek et al., 2010]) or on primary hippocampal neurons prepared from P0–P1 rats, plated on collagen/poly-D-lysine-coated glass coverslips at a density of ∼50,000 cells/cm^2, and grown in Neurobasal A medium with B27 Supplement (Gibco). Agonist-induced responses were voltage-clamped at a holding potential of −60 mV. […] Agonist-induced responses were low-pass filtered at 2 kHz, digitally sampled at 5 kHz, and analyzed with pClamp software version 10.5 (Molecular Devices). […]

GluN1/GluN2C receptors = target: T2, GluN1/GluN2C receptors (Rattus norvegicus, UniProt P35439+Q00961); assay: Patch-clamp inhibition of GluN1/GluN2C receptors in transfected HEK293 cells; format: cell-based; settings: 1 mM glutamate and 10 μM glycine
T2 construct: expressed in transfected cells; host or cells: HEK293
T2 sequence (Q00961 20-1237, other chains not shown): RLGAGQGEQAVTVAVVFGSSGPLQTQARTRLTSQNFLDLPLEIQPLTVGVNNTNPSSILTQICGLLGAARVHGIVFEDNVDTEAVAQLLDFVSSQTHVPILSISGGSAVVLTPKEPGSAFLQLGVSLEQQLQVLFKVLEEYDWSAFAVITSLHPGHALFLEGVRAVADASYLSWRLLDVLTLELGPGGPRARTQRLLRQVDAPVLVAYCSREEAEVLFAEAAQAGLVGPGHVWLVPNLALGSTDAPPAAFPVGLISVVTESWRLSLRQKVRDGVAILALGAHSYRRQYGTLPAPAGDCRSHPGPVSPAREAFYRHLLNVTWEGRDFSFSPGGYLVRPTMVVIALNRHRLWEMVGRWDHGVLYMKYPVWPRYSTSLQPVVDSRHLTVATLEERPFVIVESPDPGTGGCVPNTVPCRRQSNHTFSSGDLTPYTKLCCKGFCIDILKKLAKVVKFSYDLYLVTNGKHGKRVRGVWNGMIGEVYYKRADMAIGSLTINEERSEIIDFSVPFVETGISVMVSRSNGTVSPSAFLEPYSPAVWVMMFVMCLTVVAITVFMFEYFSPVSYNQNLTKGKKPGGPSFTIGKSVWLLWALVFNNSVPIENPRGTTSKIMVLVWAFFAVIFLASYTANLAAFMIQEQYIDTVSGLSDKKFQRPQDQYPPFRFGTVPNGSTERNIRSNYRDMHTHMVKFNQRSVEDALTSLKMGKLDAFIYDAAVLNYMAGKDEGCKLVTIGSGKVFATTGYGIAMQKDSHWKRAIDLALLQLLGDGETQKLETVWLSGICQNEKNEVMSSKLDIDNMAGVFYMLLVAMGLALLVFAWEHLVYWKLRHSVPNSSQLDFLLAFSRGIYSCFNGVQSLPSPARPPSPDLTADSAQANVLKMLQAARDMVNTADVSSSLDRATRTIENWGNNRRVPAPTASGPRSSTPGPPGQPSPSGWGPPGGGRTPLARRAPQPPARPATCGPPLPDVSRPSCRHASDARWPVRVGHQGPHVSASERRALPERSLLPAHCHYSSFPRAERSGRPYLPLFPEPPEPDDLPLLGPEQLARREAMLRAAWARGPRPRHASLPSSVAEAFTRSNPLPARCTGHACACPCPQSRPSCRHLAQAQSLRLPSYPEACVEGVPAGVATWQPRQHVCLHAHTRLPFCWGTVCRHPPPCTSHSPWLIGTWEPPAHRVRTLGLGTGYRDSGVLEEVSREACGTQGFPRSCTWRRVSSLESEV
Method: as §1, §2

T1 sequence (Q62645 28-1323, other chains not shown): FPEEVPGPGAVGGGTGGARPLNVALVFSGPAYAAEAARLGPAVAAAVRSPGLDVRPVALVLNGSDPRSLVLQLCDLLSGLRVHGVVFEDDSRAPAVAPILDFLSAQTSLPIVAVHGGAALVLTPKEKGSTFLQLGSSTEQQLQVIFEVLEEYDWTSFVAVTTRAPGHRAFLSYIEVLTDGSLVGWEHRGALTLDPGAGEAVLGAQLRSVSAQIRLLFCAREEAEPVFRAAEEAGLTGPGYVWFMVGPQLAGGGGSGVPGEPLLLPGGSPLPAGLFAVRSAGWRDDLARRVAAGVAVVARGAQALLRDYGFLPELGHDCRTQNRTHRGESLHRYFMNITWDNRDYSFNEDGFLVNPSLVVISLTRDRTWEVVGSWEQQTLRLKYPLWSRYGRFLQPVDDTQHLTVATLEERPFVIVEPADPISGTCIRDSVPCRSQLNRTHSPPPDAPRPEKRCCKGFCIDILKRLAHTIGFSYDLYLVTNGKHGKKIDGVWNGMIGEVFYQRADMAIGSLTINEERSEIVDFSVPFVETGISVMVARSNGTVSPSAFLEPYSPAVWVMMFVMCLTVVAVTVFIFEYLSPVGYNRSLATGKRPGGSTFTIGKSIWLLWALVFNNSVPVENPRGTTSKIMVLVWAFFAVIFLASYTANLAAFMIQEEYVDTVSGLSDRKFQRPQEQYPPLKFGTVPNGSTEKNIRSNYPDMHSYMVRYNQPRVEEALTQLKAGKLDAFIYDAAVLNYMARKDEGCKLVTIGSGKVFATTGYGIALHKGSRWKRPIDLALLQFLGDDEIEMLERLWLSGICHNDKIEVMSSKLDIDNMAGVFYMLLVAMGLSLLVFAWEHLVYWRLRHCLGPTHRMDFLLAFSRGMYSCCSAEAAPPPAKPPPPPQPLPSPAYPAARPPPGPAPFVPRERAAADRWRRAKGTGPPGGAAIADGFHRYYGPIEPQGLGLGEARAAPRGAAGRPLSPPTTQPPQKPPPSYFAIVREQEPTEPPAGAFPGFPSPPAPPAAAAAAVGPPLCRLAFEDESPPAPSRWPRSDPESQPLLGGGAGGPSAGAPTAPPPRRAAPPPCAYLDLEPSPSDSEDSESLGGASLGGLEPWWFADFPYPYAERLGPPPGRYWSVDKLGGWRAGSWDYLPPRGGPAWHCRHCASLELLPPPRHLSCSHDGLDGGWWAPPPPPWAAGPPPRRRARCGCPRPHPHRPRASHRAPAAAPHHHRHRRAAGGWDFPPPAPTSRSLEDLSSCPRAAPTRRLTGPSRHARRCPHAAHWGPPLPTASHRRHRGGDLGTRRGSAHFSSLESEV

In the case of `C[C@@]12CCC[C@H]1[C@@H]1CC[C@@H]3C[C@H](NC(=O)[C@@H](N)CC(=O)O)CC[C@]3(C)[C@H]1CC2` [Compound 6, (S)-3-amino-4-(((3R,5R,8S,9S,10S,13S,14S)-10,13-dimethylhexadecahydro-1H-cyclopenta[a]phenanthren-3-yl)amino)-4-oxobutanoic acid], the “h ± SD (apparent Hill coefficient)” value (GluN1/GluN2D receptors) is reported as 1.6 ± 0.3, the IC50 (GluN1/GluN2D receptors; concentration-response) is reported as 8.4 ± 1 µM and the “h ± SD (apparent Hill coefficient)” value (GluN1/GluN2C receptors) is reported as 1.6 ± 0.3. For the same compound, the IC50 (GluN1/GluN2C receptors; concentration-response) was 7.3 ± 0.8 µM.
